Common to all, as to format: in vivo
Test [1] deals with Foxtail, Giant (giant foxtail, Setaria faberi). The experiment in a line: Test A1 postemergence, Foxtail, Giant. The settings on record: Postemergence. In short, it runs like this:
(§1)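 Pre: seeds in loam/sand blend, directed soil spray. Post: potted plants, same soil, 2–10 cm, 1–2 leaf stage. Chemicals in non-phytotoxic solvent + surfactant for both.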

The subject of test [2] is soybean (Glycine max). Description: Test A1 preemergence, soybean. In short, it runs like this: (§2)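 Both timings started from seed in a loam-sand blend. Preemergence pots got a directed soil application immediately; postemergence pots were sprayed when seedlings had one or two leaves and stood 2–10 cm. Each compound was prepared in a non-phytotoxic solvent plus surfactant.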

For test [3], the system named is corn (Zea mays). Description: Test A1 preemergence, corn. Summed up:
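Postemergence species (ragweed, Palmer pigweed, wild oat) were sprayed at one- to two-leaf stage, 2 to 10 cm tall. Corn was treated preemergence by directed soil spray. Both used a loam soil/sand blend and compounds in a non-phytotoxic solvent mixture with surfactant.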

Test [4] relates to blackgrass (Alopecurus myosuroides). Description: Test A1 postemergence, blackgrass. Particulars: Postemergence, 0 to 100 scale (0 no effect, 100 complete control). In short, it runs like this:
as §1

Test [5] relates to wheat (Triticum aestivum). Description: Test A1 postemergence, wheat. The settings on record: Postemergence. Summed up:
as §1

For test [6], the system named is barnyardgrass (Echinochloa crus-galli). Description: Test B1 flooded paddy test, barnyardgrass. The settings on record: 250 g ai/ha, Flood, applied to paddy water, 2-leaf stage, visually evaluated after 10 to 14 days. The text has this: (§3) A dash (-) response means no test result.
Test [7] relates to rice (Oryza sativa). The experiment in a line: Test B1 flooded paddy test, rice. Particulars: 250 g ai/ha, Flood, applied to paddy water, 2-leaf stage, visually evaluated after 10 to 14 days.
Source text: as §3

The subject of test [8] is horseweed (Erigeron canadensis). The experiment in a line: Test A1 postemergence, horseweed. The settings on record: Postemergence. In short, it runs like this: as §1
The subject of test [9] is Foxtail, Giant (giant foxtail, Setaria faberi). The experiment in a line: Test A1 preemergence, Foxtail, Giant. Summed up:
as §2

Test [10] relates to Pigweed, Palmer (palmer amaranth, palmer pigweed, Amaranthus palmeri). The experiment in a line: Test A1 preemergence, Pigweed, Palmer. Summed up:
as §2

In test [11] the test system is Ryegrass, Italian (Italian ryegrass, Lolium multiflorum). The experiment in a line: Test A1 preemergence, Ryegrass, Italian. Summed up: as §2
Where [12] appears, read: 31 g ai/ha, 0 to 100 scale (0 no effect, 100 complete control), 10 days.
Where [13] appears, read: 31 g ai/ha, 0 to 100 scale (0 no effect, 100 complete control).
Setting [14] is: 125 g ai/ha, 0 to 100 scale, 0 no effect, 100 complete control.

These results are taken from US20230278972A1, “SUBSTITUTED HALOALKYL SULFONANILIDE HERBICIDES” (FMC Corporation, priority 2020, published 2023).

Molecules are shown by their SMILES.

Take `Cc1cc(C)c(N(COC(=O)C(C)(C)C)S(=O)(=O)C(F)(F)F)cc1C(=O)N1CCC(c2ccccc2)CC1` [Compound 364]: the “Plant response rating, Foxtail, Giant” value in [1] (setting [12]) was found to be 0; in test [1] (125 g ai/ha, 0 to 100 scale) it was 20; in test [9] (setting [13]), 0; in test [9] (setting [14]), 0. Also, the “Plant response rating, Soybean” value in test [2] (setting [13]) and in test [2] (setting [14]) was 0 throughout. The “Plant response rating, Corn” value in test [3] (setting [13]) and in test [3] (setting [14]) was 0 each time. The “Plant response rating, Blackgrass” value came to 0 in [4] (31 g ai/ha, 10 days) and 0 in test [4] (125 g ai/ha). Further, the “Plant response rating, Wheat” value came out at 0 in test [5] (setting [12]) and 0 in test [5] (125 g ai/ha, 0 to 100 scale). Moreover, the “Plant response rating, Barnyardgrass (0 to 100 scale, 0 is no effect, 100 is complete control)” value in test [6] was determined as 0. Moreover, the “Plant response rating, Rice (0 to 100 scale, 0 is no effect, 100 is complete control)” value in [7] was 0. Moreover, the “Plant response rating, Horseweed” value was found to be 0 in test [8] (setting [12]) and 0 in test [8] (125 g ai/ha, 0 to 100 scale). Moreover, the “Plant response rating, Pigweed, Palmer” value in [10] (setting [13]) and in test [10] (setting [14]) was 0 each time. For the same compound, the “Plant response rating, Ryegrass, Italian” value in test [11] (setting [13]) and in test [11] (setting [14]) was 0 in each case.
As to `CCOC(=O)N(c1cc(C(=O)N2CCC(c3ccccc3)CC2)c(C)cc1C)S(=O)(=O)C(F)(F)F` [Compound 365], the “Plant response rating, Foxtail, Giant” value in test [1] (setting [12]) was determined as 0; in [1] (125 g ai/ha, 0 to 100 scale), 0; in test [9] (setting [13]), 0; in test [9] (setting [14]), 30. Also, the “Plant response rating, Soybean” value in [2] (setting [13]) and in [2] (setting [14]) was 0 each time. In addition, the “Plant response rating, Corn” value in [3] (setting [13]) and in test [3] (setting [14]) was 0 throughout. In addition, the “Plant response rating, Blackgrass” value came out at 0 in test [4] (31 g ai/ha, 10 days) and 30 in test [4] (125 g ai/ha). The “Plant response rating, Wheat” value was 0 in test [5] (setting [12]) and 20 in test [5] (125 g ai/ha, 0 to 100 scale). In test [6], the “Plant response rating, Barnyardgrass (0 to 100 scale, 0 is no effect, 100 is complete control)” value is 15. The “Plant response rating, Rice (0 to 100 scale, 0 is no effect, 100 is complete control)” value in test [7] is 15. Besides, the “Plant response rating, Horseweed” value in [8] (setting [12]) is 10; in test [8] (125 g ai/ha, 0 to 100 scale) it was 20. The “Plant response rating, Pigweed, Palmer” value in test [10] (setting [13]) and in test [10] (setting [14]) was 30 in each case. Besides, the entries for the “Plant response rating, Ryegrass, Italian” value in test [11] (setting [13]) and in test [11] (setting [14]) were 0 and 30, respectively.
